# Test results: patent US8038984B2, “Membrane-permeant peptide complexes for treatment of sepsis” (Washington University, priority 1998, dated 2011)
# Numbered stars: 1 amine (or outer) side, 2 acyl side, 3 side chain; on linkers, the order of the positions; unused ones are H or OH. Square brackets hold non-standard residues; d marks the D form. εLys = N[C@@H](CCCCN[*:1])C(=O)[*:2]; dOrn = NCCC[C@@H](N)C(=O)O; βAla = NCCC(=O)O
# Tests used:
# caspase-3 = target: T1, caspase-3 (Homo sapiens, UniProt P42574); test: Cleavage of the caspase-3 cleavable linker in situ in C6-ceramide-treated Jurkat cells; format: cell-based; settings: 5 μM C6-ceramide, 1 μM peptide, RP-HPLC at 440 nm of lysates
# T1 construct: Human Jurkat leukemia cells express pro-caspase-3; endogenous in cells; host or cells: Jurkat (human T-cell leukemia)
# T1 sequence (P42574 29-175 limits assumed): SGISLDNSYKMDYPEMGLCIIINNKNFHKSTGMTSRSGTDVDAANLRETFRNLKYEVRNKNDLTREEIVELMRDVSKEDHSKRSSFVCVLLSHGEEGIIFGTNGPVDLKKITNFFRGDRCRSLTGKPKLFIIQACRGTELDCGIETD
# T1 sequence (P42574 176-277 limits assumed): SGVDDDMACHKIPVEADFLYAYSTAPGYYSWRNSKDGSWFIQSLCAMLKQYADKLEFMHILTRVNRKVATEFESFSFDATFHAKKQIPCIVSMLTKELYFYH
# Experimental: Human Jurkat leukemia cells express pro-caspase-3. Apoptosis can be induced by pre-incubation of Jurkat cells for 5 hr in medium containing C6-ceramide, a permeant phospholipid known to activate the cell death program (Herr, et al., EMBO J 16:6200-6208, 1997; Jayadev S, et al., J. Biol Chem 270:2047-2052, 1995). After pre-incubation of Jurkat cells in MEBSS buffer at […] in the absence (untreated) or presence of 5 μM C6-ceramide, 1 μM of the caspase-3 cleavable fluorescein tagged Tat peptide of Example 8 was added to the MEBSS buffer for 30 minutes. Untreated and apoptotic cells were then spun through oil (see Example 6) to clear extracellular spaces of Tat peptide, and the intact cells in the pellet were allowed to incubate for 5 minutes at 37° C. The oil was quickly suctioned off, the reaction terminated with cell lysis buffer (1% SDS, 10 mM sodium borate), and the cell extract centrifuged (500×g for 10 min) to pellet debris and precipitates. The supernatant was removed, lyophilized overnight, and resuspended in 500 μl of water. […] In C6-ceramide-treated cells, however, no such species was observable (FIG. 7).
# The above experiment was repeated using the Tc-99m-Tat peptide of Example 8. […] Tc99-m and protein content were determined using published methods (Bosch et al., Leukemia 11:1131-37, 1997).
# [1] = target: T2, recombinant human active caspase-3 (Homo sapiens, UniProt P42574); test: Cleavage of the caspase-3 cleavable linker in vitro; format: biochemical; settings: 6 hrs incubation with active caspase-3, TLC
# T2 construct: recombinant human active caspase-3
# T2 sequence (P42574 29-175 limits assumed): T1 sequence (P42574 29-175 limits assumed)
# T2 sequence (P42574 176-277 limits assumed): T1 sequence (P42574 176-277 limits assumed)
# Experimental: In small reaction vials, Tat peptide chelate as the fluorescein tagged conjugate of Example 8 was incubated with and without recombinant human active caspase-3 in commercially available reaction buffer (caspase buffer, Invitrogen). In vial 1 was peptide conjugate in buffer without caspase-3; in vial 2 was peptide conjugate with active caspase-3; and in vial 3 was stock peptide conjugate. After 6 hrs of incubation to assure completion of the reaction, the reaction mixtures were spotted at the origin of silica gel TLC plates, developed in 15% TFA, and analyzed under an UV lamp. […] This represents direct evidence for successful synthesis of a caspase-3-cleavable Tat peptide imaging conjugate.
# [2] = test system: human KB-3-1 and KB-8-5 epidermoid carcinoma cells; test: Fluorescence (confocal) microscopy of subcellular distribution; format: cell-based; settings: 0.5 μM extracellular concentration, KB-3-1 and KB-8-5 cells
# Experimental: Subsequently, cells on covers lips were fixed in 4% (v/v) formaldehyde in PBS at room temperature and then rinsed 3 times with PBS (1 min each). Cells were then stained and mounted with anti-fading mounting medium containing propidium iodide (1 μg/ml) following the recommended procedures of the manufacturer (Vectashield). The distribution of the fluorescence was analyzed on a Zeiss confocal laser fluorescence microscope equipped with a mercury lamp, oil immersion objectives and a CCD interfaced to a PC. Propidium iodide distribution was interrogated using 340-380 nm excitation and 430 nm emission, while fluorescein distribution was interrogated using 450-490 nm excitation and 520 nm emission.
# To localize the subcellular distribution of the Tat-peptide conjugate, uptake experiments were performed with the fluorescein derivatized conjugate using human KB-3-1 and KB-8-5 epidermoid carcinoma cells.
# [3] = test system: human Jurkat leukemia cells; test: Washout of Tc-99m-Tat-peptide complexes from preloaded Jurkat cells; format: cell-based; settings: residual activity remaining within the cell 30 minutes after a wash in isotope-free buffer
# Experimental: (§1) Characterization of accumulation of Tc-99m-peptide complex was also performed for nonadherent cell lines such as human Jurkat leukemia cells with minor modifications of methods described in the literature (Bosch et al., Leukemia, 11: 1131-1137, 1997). Transport experiments were performed in siliconized microfuge tubes and initiated by addition of 732.5 μl of cells at 2-3×10^6 cells/ml to 10 μl of buffer containing Tc-99m-peptide complex and 7.5 μl of vehicle alone or of any added drug in vehicle at 100-fold the desired concentration. The tubes were incubated in a 37° C. water bath with occasional mixing. The reaction was terminated by centrifuging 250 μl aliquots from the reaction for 10 seconds through 800 μl of a 75:25 mixture of silicon oil, density=1.050 (Aldrich) and mineral oil, density=0.875 (Acros). An aliquot of the aqueous phase was obtained to normalize extracellular concentration of the complex to cell-associated activity, then the oil and aqueous phases were aspirated and the cell pellet extracted in 0.5 ml of 1% SDS, 10 mM sodium borate. For tracer washout experiments, cells were first incubated to plateau uptake (10 min) in loading buffer (37° C.), collected by rapid centrifugation and the pellet resuspended in 50 ml MEBSS (4° C.) to clear extracellular tracer. Following another rapid spin, the cell pellet was resuspended in isotope-free MEBSS (37° C.) and the experiment terminated as above after various times in warm washout buffer. Radioactivity of the cell pellet, buffers and stocks were determined on a gamma counter (Cobra II, 130-165 keV window) and cell protein was determined by the BCA assay (Pierce). Transport data are reported as fmol Tc-complex (mg protein)^−1 (nM0)^− as previously described, with (nM0)^−1 representing total concentration of peptide conjugate in the extracellular buffer (Piwnica-Worms et al., Circulation, 82: 1826-1838, 1990).
# (§2) Kinetic experiments of [^99mTc]D-Tat-peptide complexes were performed in Jurkat leukemia cells suspended in MEBSS with minor modification of the methods described in Example 6. Transport experiments were performed in siliconized microfuge tubes and initiated by addition of 732.5 μl of cells at 2-3×10^6 cells/ml to 10 μl of MEBSS containing [^99mTc]D-Tat-peptide complex and 7.5 μl of vehicle alone or of any added drug in vehicle at 100 fold the desired concentration. Unless stated otherwise, [^99mTc]D-Tat-peptide complex was added to MEBSS accompanied by a molar excess of unlabeled D-Tat-peptide as obtained directly from the labeling procedure. The final total peptide concentration was 7 nM to 8 μM (1-2 μCi/ml). The tube were incubated at 37° C. and the reaction terminated as previously described. For peptide washout experiments, cells were first incubated to plateau uptake (20 minutes) in MEBSS loading buffer at 37° C., collected by rapid centrifugation and the pellet resuspended in 50 ml of isotope-free MEBSS at 4° C. to clear extracellular tracer. Following another rapid spin, the cell pellet was resuspended in isotope-free MEBSS at 37° C. for various times and the reaction terminated as described previously. Protein assays and determination of gamma activity were as described in Example 6. Absolute concentration of total [Tc]Tat-peptide complex in solution was determined from the specific activity of Tc, based on equations of Mo/Tc generator equilibrium (Lamson et al., J. Nucl. Med., 16:639-641, 1975). Transport data are reported as pmol of peptidei (mg protein)^−1 (μM0)^−1, wherein peptidei represents total peptide conjugate within the cells and (nM0)^−1 represents concentration of total peptide conjugate in the extracellular buffer.
# [4] = test system: human Jurkat leukemia cells; test: Cell accumulation (uptake) of Tc-99m-Tat-peptide complexes in Jurkat cells; format: cell-based; settings: Jurkat cells
# Experimental: Control solution for cell uptake experiments was a modified Earle's balanced salt solution (MEBSS) containing (mM): 145 Na^+, 5.4 K^+, 1.2 Ca^2+, 0.8 Mg^2+, 152 Cl^−, 0.8 H2PO4^−, 0.8 SO4^2−, 5.6 dextrose, 4.0 HEPES, and 1% bovine calf serum (vol/vol), pH 7.4±0.05. A 130 mM K^+/20 mM Cl^− solution was made by equimolar substitution of potassium methanesulfonate for NaCl as described by Piwnica-Worms et al. (J. Gen. Physiol., 81:731-748, 1983).
# as §1
# as §2, with “Transport data are reported as pmol of peptidei (mg protein)^−1 (μM0)^−1, wherein peptidei represents total peptide conjugate within the cells and (nM0)^−1 represents concentration of total peptide conjugate in the extracellular buffer.” left out
# human lymphocytes = test: E. coli bacterial-induced lymphocyte apoptosis, staining for active caspase 3; format: cell-based; settings: 1 μM; human lymphocytes, live E. coli ~5 hours
# Experimental: Thymocytes and splenocytes were obtained from CLP and sham-treated mice ˜20 hours postoperatively. The APO-BRDU™ kit (Phoenix Flow Systems, San Diego, Calif.) was employed for flow cytometric quantitation of TUNEL. Antibodies to active caspase 3 (Cell Signaling—Catalog #9664) were used in the flow cytometry and/or TUNEL assay.
# Lymphocytes were harvested from peripheral blood obtained from 6 healthy volunteers using a ficol gradient separation technique. Approximately 1×10^6 lymphocytes were plated in individual transwell containers. E. coli bacteria (strain ATCC 25922), that had been grown overnight in trypticase soy broth were added to a separate compartment of the transwell chamber separated from direct contact with the lymphocytes by a 0.02 micron filter (25 μl of bacteria at 3×10^9 CFUs added to 1 ml volume.
substance,measurement,setting,value
fluorescein tagged conjugate of Example 8: caspase-3 cleavable Tat peptide conjugate labeled at the C-terminal thiol of the peptide chelator with fluorescein maleimide (Ac-GRKKRRQRRRGDEVDG[εLys]GC(fluorescein maleimide)-NH2; not fully specified; printed as acetyl-GRKKRRQRRR-GDEVDG-εKGC-amide; also: conjugate),cleavage in living cells upon activation of caspase-3,caspase-3; listed as caspase-3 cleavable fluorescein tagged Tat peptide of Example 8,rapid cleavage
same,cleavage in living cells upon activation of caspase-3,caspase-3; listed as fluorescein tagged Tat peptide,absence of the intact Tat peptide
same,cleavage by caspase-3,[1],cleavage of the Tat peptide conjugate at the D-G cleavage site
acetyl-GRKKRRORRR-AHA-εKGC-amide-fluorescein-maleimide trifluoroacetate [Example 3],subcellular distribution,[2],rapid cytoplasmic and nuclear accumulation
same,30 min Washout,[3],24.32 pmol (mg protein)^−1 (μM0)^−1
same,20 min Uptake,"[4]; [99mTc] complexes, 37° C., 20 min",42.74 pmol (mg protein)^−1 (μM0)^−1
same,U/W Ratio,[4]; uptake/washout ratio,1.8
"(d)-Ac-RKKRR-Orn-RRR-β-A-(l)-SNRELVVDFLSDKLSQKGDS-COOH (Ac-[dR][dK][dK][dR][dR][dOrn][dR][dR][dR][βAla]SNRELVVDFLSDKLSQKGDS-OH; SMILES CC(=O)N[C@H](CCCNC(=N)N)C(=O)N[C@H](CCCCN)C(=O)N[C@H](CCCCN)C(=O)N[C@H](CCCNC(=N)N)C(=O)N[C@H](CCCNC(=N)N)C(=O)N[C@H](CCCN)C(=O)N[C@H](CCCNC(=N)N)C(=O)N[C@H](CCCNC(=N)N)C(=O)N[C@H](CCCNC(=N)N)C(=O)NCCC(=O)N[C@@H](CO)C(=O)N[C@@H](CC(N)=O)C(=O)N[C@@H](CCCNC(=N)N)C(=O)N[C@@H](CCC(=O)O)C(=O)N[C@@H](CC(C)C)C(=O)N[C@H](C(=O)N[C@H](C(=O)N[C@@H](CC(=O)O)C(=O)N[C@@H](Cc1ccccc1)C(=O)N[C@@H](CC(C)C)C(=O)N[C@@H](CO)C(=O)N[C@@H](CC(=O)O)C(=O)N[C@@H](CCCCN)C(=O)N[C@@H](CC(C)C)C(=O)N[C@@H](CO)C(=O)N[C@@H](CCC(N)=O)C(=O)N[C@@H](CCCCN)C(=O)NCC(=O)N[C@@H](CC(=O)O)C(=O)N[C@@H](CO)C(=O)O)C(C)C)C(C)C) [TAT-BH4(D)2, reference compound]",bacterial-induced apoptosis,human lymphocytes,did not prevent apoptosis
